{"source": "patent US20090123389A1", "about": "“Methods for modulating Th17 cell development in the treatment and prevention of cellulite” (priority 2007, published 2009)", "key": {"[1]": {"conditions": "rabbit, in vivo; cited from earlier work"}, "[2]": {"tested_on": "CD4+ CD25− T cells", "assay": "CD4+ T cell proliferation, CD25 upregulation, cytokine production, Th1/Th2/iTreg differentiation", "type": "cell-based, mouse", "conditions": "for concentration causing general inhibition of T and B cell activation, proliferation and effector function: CD4+ T cells, CD8+ T cells, B220+ B cells", "method": "The dose-response of HF on CD4+ T cell proliferation, activation (i.e. CD25 upregulation) and differentiation to Th1, Th2 and Th17 lineages were evaluated. Purified murine naïve CD4+ CD25− T cells were activated using anti-CD3 (0.3 μg/ml) and anti-CD28 (0.5 μg/ml) antibodies and varying amounts of HF was added to each T cell culture condition (1.25 nM-40 nM). CD4+ T cell proliferation was monitored by CFSE dilution on day 3-post activation and CD25 expression was evaluated by FACS staining 2 days after activation. For T cell differentiation experiments, naïve T cells were activated as above in the presence of Th1 (IL-12 (20 ng/ml) plus anti-IL-4 (1.5 μg/ml)), Th2 (IL-4 (50 ng/ml) plus anti-IFNγ (0.5 mg/ml)) or Th17 (TGFβ (3 ng/ml) plus IL-6 (30 ng/ml)) polarizing conditions plus titrating amounts of HF (1.25 nM-40 nM) or MAZ1310 (40 nM). The percentage of Th17 cells, (IL-17^+ IFNγ^−) was evaluated on day 3 following activation, whereas the abundance of Th1 cells (IFNγ^+ IL-4) and Th2 cells (IL-4^+ IFNγ^−) was determined 5 days following activation. All cytokine expression was determined by intracellular staining following PMA+Ionomycin+Brefeldin A re-stimulation and all data was normalized to control (MAZ1310)-treated cells. […] Biol., vol. 80:1-8 (2006).\nCytokines, antibodies and T cell culture: Purified CD4^+ CD25^− T cells were activated in vitro as previously described (I. M. Djuretic et al., Nat Immunol 8, 145 (2007)) using 0.3 μg/ml hamster anti-mouse CD3 (clone 145-2C11) (ATCC—Manassas, Va.) and 0.5 μg/ml hamster anti-mouse CD28 (BD Pharmingen, San Jose, Calif.). Activated cell cultures were differentiated using the following combinations of cytokines and antibodies: iTreg=recombinant human TGFβ1 (3 ng/ml; R&D systems, Minneapolis, Minn.), Th17=TGFβ1 (3 ng/ml) plus recombinant mouse IL-6 (30 ng/ml, R&D systems). Th1 and Th2 differentiation was performed as previously described. (I. M. Djuretic et al., Nat Immunol 8, 145 (2007)). Human IL-2 supernatant (National Cancer Institute) was used in culture at 0.01 U/ml and was added at 48 hours-post activation when T cells were split into tissue culture wells lacking CD3 and CD28 antibodies, with the exception of Th17 cultures that were maintained in the absence of IL-2. All reagents were added at the time of T cell activation and again at 48-hours post activation unless indicated otherwise. For some experiments, purified CD4^+ CD25^− T cells, CD8^+ T cells or B cells were labeled with 1 μM CFSE (Invitrogen) prior to activation in accordance with manufacturers instructions.\nDetection of cytokine production: Cytokines secreted into media supernatant were measured using the mouse Th1/Th2 cytometric bead array (CBA, BD Pharmingen) in accordance with manufacturers instructions. Briefly, CD4^+ CD25^− T cells were activated in anti-CD3/anti-CD28-coated tissue culture wells and supernatants were collected at the indicated times. For detection of intracellular cytokines in murine cells, cultured T or B cells were stimulated with 10 nM PMA (Sigma) and […] (Sigma) for 4-5 hours in the presence of […] (Sigma). Stimulated cells were harvested, washed with PBS and fixed with PBS plus 4% paraformaldehyde at room temperature for 20 minutes. […]"}, "[3]": {"tested_on": "dermal ECM deposition", "conditions": "cited from earlier work"}}, "data": [{"smiles": "O=C(CC1NCCCC1O)Cn1cnc2cc(Br)c(Cl)cc2c1=O", "note": "(racemic) [HF, 7-bromo-6-chloro-3-[3-(3-hydroxy-2-piperidinyl)-2-oxopropyl]-4(3H)-quinazolinone]", "values": [{"measurement": "HF in serum after topical treatment of rabbits", "setting": "[1]", "value": "undetectable in serum"}, {"measurement": "concentration causing general inhibition of T and B cell activation, proliferation and effector function", "setting": "[2]", "value": "> 20", "unit": "nM"}, {"measurement": "concentration causing general inhibition of T and B cell activation, proliferation and effector function", "setting": "[2]; listed as halofuginone", "value": "20 to 40", "unit": "nM"}, {"measurement": "T cell proliferation, CD25 upregulation or production of IL-2, TNF or IFNγ", "setting": "[2]; low concentrations of HF (1-10 nM)", "value": "did not affect"}, {"measurement": "Th1, Th2 or iTreg differentiation (IFNγ, IL-4 or Foxp3 expression)", "setting": "[2]; low-dose HF", "value": "failed to modulate"}, {"measurement": "excess dermal ECM deposition", "setting": "[3]; intra-peritoneally, added to food, or applied locally", "value": "reduces excess dermal ECM deposition"}, {"measurement": "wound healing", "setting": "[3]; topical HF, animal models", "value": "facilitate wound healing"}]}]}
